Assay results reported in patent publication US10703764B2, “Benzopiperazine compositions as BET bromodomain inhibitors” (FORMA Therapeutics, Inc., priority 2013, dated 2020).

Legend:
BRD4 BD1 = target: T1, BRD4 BD1 (Homo sapiens, UniProt O60885); experiment: AlphaScreen binding assay, BRD4 Bromodomain 1
T1 construct: made in house
How it was run: (§1)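 An AlphaScreen competition format was used with His-BRD4 BD1 or BD2 and biotin-H4 K5/8/12/16-acetyl peptide, each at matched final levels of 50 nM (BD1) or 100 nM (BD2). Incubation in HEPES/NaCl buffer with 0.1% BSA and 0.01% Triton X-100 ran ≥1 h before IC50 determination.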

BRD4 BD2 = target: T2, BRD4 BD2 (Homo sapiens, UniProt O60885); experiment: AlphaScreen binding assay, BRD4 Bromodomain 2
T2 construct: made in house
How it was run: as §1

Row | Structure (SMILES) | IC50 (BRD4 BD1) [nM] | IC50 (BRD4 BD2) [nM]
1 | CC(=O)N1c2ccc(-c3cnn(C4COC4)c3)cc2N(C(=O)CC(F)(F)F)C[C@@H]1C [Example I-108, (S)-1-(4-acetyl-3-methyl-7-(1-(oxetan-3-yl)-1H-pyrazol-4-yl)-3,4-dihydroquinoxalin-1 (2H)-yl)-3,3,3-trifluoropropan-1-one] | > 10000 | 50 to 500
2 | CC(=O)N1c2ccc(-c3ccc(S(C)(=O)=O)cc3)cc2N(C(=O)C(C)C)C[C@@H]1C [Example I-242] | > 10000 | > 500
3 | C[C@H]1CN(C(=O)c2ccco2)c2cc(-c3ccc(S(C)(=O)=O)cc3)ccc2N1C(=O)C(F)(F)F [Example I-361] | > 10000 | > 500
4 | COC(=O)N1c2ccc(-c3cnn(C4CCNCC4)c3)cc2N(C(=O)Oc2cccnc2)C[C@@H]1C [Example I-1296] | 1000 to 10000 | 50 to 500
5 | CC(=O)N1c2ccc(-c3ccc(S(C)(=O)=O)cc3)cc2N(C(=O)c2ncoc2C)C[C@@H]1C [Example I-884] | > 10000 | > 500
6 | CC(=O)N1c2ccccc2N(C(=O)c2cnn(-c3ccccc3)c2C(F)(F)F)C[C@@H]1C [Example I-756] | > 10000 | > 500
7 | CC(=O)N1c2ccccc2N(Cc2cc(C(F)(F)F)cc(C(F)(F)F)c2)C[C@@H]1C [Example I-900] | > 10000 | > 500
8 | CC(=O)N1c2ccc(-c3ccc(-c4ccccc4)cc3)cc2N(C(=O)COc2ccccc2)C[C@@H]1C [Example I-797] | > 10000 | > 500
9 | CC(=O)N1c2ccccc2N(S(=O)(=O)Cc2ccc(Cl)cc2)C[C@@H]1C [Example I-962] | > 10000 | > 500
10 | CC(=O)N1c2ccc(-c3cnccn3)cc2N(C(=O)c2ccco2)C[C@@H]1C [Example I-384] | 1000 to 10000 | 50 to 500
11 | CC(=O)N1c2ccc(-c3cnn(C4COC4)c3)cc2N(C(=O)OCC2COC2)C[C@@H]1C [Example I-64, (S)-oxetan-3-ylmethyl 4-acetyl-3-methyl-7-(1-(oxetan-3-yl)-1H-pyrazol-4-yl)-3,4-dihydroquinoxaline-1(2H)-carboxylate] | 1000 to 10000 | 50 to 500

Other lines, results leading:

Row | IC50 (BRD4 BD1) [nM] | IC50 (BRD4 BD2) [nM] | Structure (SMILES)
12 | 1000 to 10000 | 50 to 500 | CCC1(COC(=O)N2C[C@H](C)N(C(C)=O)c3ccc(-c4cnn(C5COC5)c4)cc32)COC1 [Example I-63, (S)-(3-ethyloxetan-3-yl)methyl 4-acetyl-3-methyl-7-(1-(oxetan-3-yl)-1H-pyrazol-4-yl)-3,4-dihydroquinoxaline-1(2H)-carboxylate]
13 | 1000 to 10000 | 50 to 500 | CC(=O)N1c2ccc(-c3cnc4ccccc4c3)cc2N(C(=O)c2ccco2)C[C@@H]1C [Example I-823]
14 | 1000 to 10000 | 50 to 500 | CC(=O)N1c2ccc(-c3cnn(C4CC4)c3)cc2N(C(=O)Oc2cc(F)ccc2C)C[C@@H]1C [Example I-1200]
15 | 100 to 1000 | < 50 | CC(=O)N1c2ccc(-c3cccc(-n4cccn4)c3)cc2N(C(=O)c2ccco2)C[C@@H]1C [Example I-853]
16 | 1000 to 10000 | 50 to 500 | CC(=O)N1c2ccc(-c3cnc4ccccn34)cc2N(C(=O)c2ccco2)C[C@@H]1C [Example I-391]
17 | 1000 to 10000 | 50 to 500 | CC(=O)N1c2ccc(-c3ccc(S(C)(=O)=O)cc3)cc2N(C(=O)Nc2ccsc2)C[C@@H]1C [Example I-979]
18 | 1000 to 10000 | 50 to 500 | COc1ncc(C)cc1OC(=O)N1C[C@H](C)N(C(C)=O)c2ccc(-c3cnn(C4CC4)c3)cc21 [Example I-1210]
19 | 1000 to 10000 | 50 to 500 | CC(=O)N1c2ccc(-c3ccc(S(C)(=O)=O)cc3)cc2N(C(=O)c2cc3ccc(Cl)cc3[nH]2)CC1C (stereo not shown) [Example I-787]
20 | 1000 to 10000 | 50 to 500 | CC(=O)N1c2ccc(-c3cnn(C4COC4)c3)cc2N(C(=O)OC2(C)CC2)C[C@@H]1C [Example I-76, (S)-1-methylcyclopropyl 4-acetyl-3-methyl-7-(1-(oxetan-3-yl)-1H-pyrazol-4-yl)-3,4-dihydroquinoxaline-1(2H)-carboxylate]
